This note sets out measurements from patent US11236084B2, “Substituted azaindoline derivatives as NIK inhibitors” (Janssen Pharmaceutica NV, priority 2017, dated 2022).

SMILES strings stand for the structures. Where two headings read alike, the source gives them in different places.

For data set [1], the target named is T1, recombinant human NF-kappaB-inducing kinase (NIK/MAP3K14) (Homo sapiens, UniProt Q99558). Kind of data set: Biological Assay B: inhibition of auto-phosphorylation of recombinant human NIK/MAP3K14 (AlphaScreen), performed at 2 locations. Format: biochemical. The note with it: averaged values. The essentials: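 Run at two separate sites: 1 h, 25° C. reactions containing 0.2 nM GST-NIK, 25 microM ATP and compound (1% DMSO) in Tris pH 7.5/MgCl2 buffer. Phosphorylation detected via anti-phospho-IKK Ser176/180 antibody with AlphaScreen beads; IC50 fitted to % inhibition.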
A general note: Alpha assays give light when donor and acceptor beads are brought close together.

The target in data set [2] is T1, recombinant human NF-kappaB-inducing kinase (NIK/MAP3K14). Kind of data set: Biological Assay A: inhibition of recombinant human NF-kappaB-inducing kinase (NIK/MAP3K14) activity (MBP phosphorylation, Mesoscale). The note with it: MSD MBP; averaged over all measurements on all batches; read-out: Assay A Biochemical (MSD MBP) IC50. As to the method:
Pharmacological Part Biological Assay A Inhibition of Recombinant Human NF-kappaB-Inducing Kinase (NIK/MAP3K14) Activity
Assay buffer was 50 mM Tris pH 7.5 containing 1 mM EGTA (ethylene glycol tetraacetic acid), 1 mM DTT (dithiothreitol), 0.1 mM Na3VO4, 5 mM MgCl2, 0.01% Tween® 20. Assays were carried out in 384 well Mesoscale high binding plates which had been coated with myelin basic protein (MBP) and blocked with bovine serum albumin to prevent non-specific protein binding. All compounds tested were dissolved in dimethyl sulfoxide (DMSO) and further dilutions were made in assay buffer. Final DMSO concentration was 1% (v/v) in assays. Incubations consisted of compound (1% DMSO in control and blank wells), 25 μM […] (ATP), and 10 nM NIK/MAP3K14 substituting enzyme with buffer in the blank wells. Incubations were carried out for 1 h at 25° C. and were followed by washing and sequential incubation with rabbit anti-phospho-MBP and anti-rabbit Ig Sulfotag antibody before reading bound Sulfotag on a Mesoscale Discovery. Signal obtained in the wells containing blank samples was subtracted from all other wells and […] were determined by fitting a sigmoidal curve to % inhibition of control versus Log10 compound concentration.
Data for the compounds of the invention in the above assays are provided in Table A (the values in Table are averaged values over all measurements on all batches of a compound; values as IC50 (nM)). (‘n.c.’ means not calculated: ‘Co.’ means compound)

The subject of data set [3] is P-IKKα levels in L363 (NIK translocated multiple myeloma) cells. Kind of data set: Biological Assay C: effect of compounds on P-IKKα levels in L363 (NIK translocated multiple myeloma) cells, performed at 2 locations. It is filed as cell-based, human. The note with it: L363 cells, P-IKKα levels, averaged values. Summed up:
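Human L363 cells were primed 24 h with recombinant human BAFF, then treated 2 h with compound (8-point 1:3 dilutions, 1% DMSO) at 37 °C. IC50 came from a sigmoidal fit of % inhibition versus log concentration, determined at two sites.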

Where [4] appears, read: location 1, NIK auto-phosphorylation, AlphaScreen, read-out: Assay B location 1 IC50.
[5] abbreviates: location 2, AlphaScreen auto-phosphorylation, read-out: Assay B location 2 IC50.
Where [6] appears, read: Homo sapiens, L-363, location 2, read-out: Assay C location 2 IC50.
Where [7] appears, read: Homo sapiens, L-363, location 1, read-out: Assay C location 1 IC50.
The mark [8] stands for this setting: location 1, AlphaScreen auto-phosphorylation, read-out: Assay B location 1 IC50.
The mark [9] stands for this setting: location 2, read-out: Assay C location 2 IC50.

T1 sequence (Q99558 whole entry): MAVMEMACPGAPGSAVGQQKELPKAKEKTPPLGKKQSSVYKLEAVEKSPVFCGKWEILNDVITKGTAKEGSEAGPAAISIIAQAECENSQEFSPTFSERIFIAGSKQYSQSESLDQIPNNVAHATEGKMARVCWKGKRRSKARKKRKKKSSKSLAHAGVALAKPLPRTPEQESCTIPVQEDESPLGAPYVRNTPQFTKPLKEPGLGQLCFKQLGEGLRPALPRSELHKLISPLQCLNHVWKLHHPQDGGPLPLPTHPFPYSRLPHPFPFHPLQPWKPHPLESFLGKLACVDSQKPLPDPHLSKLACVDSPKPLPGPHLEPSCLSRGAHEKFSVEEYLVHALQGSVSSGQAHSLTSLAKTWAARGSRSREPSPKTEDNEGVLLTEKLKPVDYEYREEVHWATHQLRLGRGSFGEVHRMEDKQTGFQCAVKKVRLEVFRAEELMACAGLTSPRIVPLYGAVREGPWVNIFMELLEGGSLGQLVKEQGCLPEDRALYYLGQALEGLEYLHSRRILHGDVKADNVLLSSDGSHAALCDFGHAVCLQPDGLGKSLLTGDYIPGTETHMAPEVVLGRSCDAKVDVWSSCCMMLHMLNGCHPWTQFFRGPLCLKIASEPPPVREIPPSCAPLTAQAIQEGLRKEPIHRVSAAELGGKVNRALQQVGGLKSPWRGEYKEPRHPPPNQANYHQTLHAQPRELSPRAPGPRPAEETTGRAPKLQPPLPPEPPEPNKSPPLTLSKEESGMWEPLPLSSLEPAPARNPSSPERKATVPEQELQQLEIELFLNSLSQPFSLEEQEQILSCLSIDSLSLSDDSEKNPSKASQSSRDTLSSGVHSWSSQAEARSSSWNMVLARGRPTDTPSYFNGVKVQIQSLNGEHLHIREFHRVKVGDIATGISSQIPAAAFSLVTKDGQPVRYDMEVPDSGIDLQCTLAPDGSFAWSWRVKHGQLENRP

As to `COc1cc(N2CC3(CCOCC3)C2)c(Cl)cc1Nc1ncc(Cl)c(-c2cnc3c(c2)C(C)(CO)CN3)n1` (single isomer, unassigned) [Compound 347], the melting point (as a rule, the temperature of the solid-liquid transition) was more than 250 °C. Besides, in data set [1] (setting [4]), the IC50 (usually the midpoint of a concentration-inhibition curve) worked out at 144 nM.
Compound `COc1cc(C(=O)NC2CCOCC2)ccc1Nc1ncc(F)c(-c2cnc3c(c2)C(C)(CO)CN3)n1` (single isomer, unassigned) [Compound 349] yielded a melting point of more than 250 °C. Further, the IC50 in data set [1] (setting [4]) was 3.6 nM.
With `COc1cc(C(=O)NC2CCOCC2)ccc1Nc1nccc(-c2cnc3c(c2)C(C)(CO)CN3)n1` (centres unmarked) [Compound 1], the IC50 worked out at 12 nM in data set [2], 2.6 nM in data set [1] (setting [5]) and 129 nM in data set [3] (setting [6]).
The matching figures for `CC(=O)NCc1ccc(Nc2nccc(-c3cnc4c(c3)C(C)(C)CN4)n2)c(C)c1` [Compound 44]: 20 nM, 2.5 nM and 243 nM.
The matching figures for `COc1cc(Nc2nccc(-c3cnc4c(c3)C(C)(CO)CN4)n2)cc(OC)c1OC` (centres unmarked) [Compound 46]: 3.3 nM, 2.8 nM and approximately 129 nM.
For the compound `COc1cc(CNC(C)=O)c(C)c(Nc2nccc(-c3cnc4c(c3)C(C)(C)CN4)n2)c1` [Compound 49], the IC50 came out at 6.2 nM in data set [2], 1.8 nM in data set [1] (setting [5]), 550 nM in data set [3] (setting [7]) and 43.7 nM in data set [3] (setting [6]).
With `COc1cc(C(=O)NC2CCOCC2)ccc1Nc1nccc(-c2cnc3c(c2)C(C)(C)CN3)n1` [Compound 50], the figures for the IC50 in data set [2], in data set [1] (setting [5]) and in data set [3] (setting [6]) were 7.4 nM, 1.2 nM and 81.3 nM, respectively.
In the case of `Cc1cc(C(=O)N2CCC(O)CC2)ccc1Nc1nccc(-c2cnc3c(c2)C(C)(C)CN3)n1` [Compound 54], the IC50 in data set [2] stood at 8.9 nM; in data set [1] (setting [5]) it was 3.4 nM; in data set [3] (setting [7]), 263 nM; in data set [3] (setting [6]), 373 nM.
`Cc1cc(C(=O)NC2CN(C)C2)ccc1Nc1nccc(-c2cnc3c(c2)C(C)(C)CN3)n1` [Compound 55]: the IC50 stood at 32.4 nM in data set [2], 3.3 nM in data set [1] (setting [5]) and 288 nM in data set [3] (setting [6]).
Regarding `COc1cc(C(=O)NC2CCN(C)CC2)ccc1Nc1nccc(-c2cnc3c(c2)C(C)(C)CN3)n1` [Compound 60], the IC50 in data set [2] amounted to 5.5 nM; in data set [1] (setting [5]), 1.2 nM; in data set [3] (setting [6]) it was 407 nM.
For `COc1cc(CNC(C)=O)ccc1Nc1nccc(-c2cnc3c(c2)C(C)(C)CN3)n1` [Compound 62], the results for the IC50 in data set [2], in data set [1] (setting [5]) and in data set [3] (setting [6]) were 5.5 nM, 1.4 nM and 43.7 nM, respectively.
Take `COC1CCN(C(=O)c2ccc(Nc3nccc(-c4cnc5c(c4)C(C)(C)CN5)n3)c(C)c2)CC1` [Compound 79]: the IC50 came out at 11.8 nM in data set [2], 1.3 nM in data set [1] (setting [5]), 661 nM in data set [3] (setting [7]) and 74.1 nM in data set [3] (setting [6]).
In the case of `Cc1cc(C(=O)N2CCN(C)CC2)ccc1Nc1nccc(-c2cnc3c(c2)C(C)(C)CN3)n1` [Compound 81], the figures for the IC50 in data set [2], in data set [1] (setting [5]) and in data set [3] (setting [6]) were 14.8 nM, 2.6 nM and 589 nM, respectively.
For `CC1(C)CNc2ncc(-c3ccnc(Nc4ccc(C(=O)NC5CCOCC5)cc4OC(F)F)n3)cc21` [Compound 82], the IC50 in data set [2] stood at 24.6 nM; in data set [1] (setting [5]) it was 2.7 nM; in data set [3] (setting [6]) it was 282 nM.
As to `COc1cc(CNC(C)=O)c(C)c(Nc2nccc(-c3cnc4c(c3)C(C)(CO)CN4)n2)c1` (centres unmarked) [Compound 84], the IC50 in data set [2] amounted to 5.4 nM; in data set [1] (setting [5]), 4.8 nM; in data set [3] (setting [6]) it was 49 nM.
On to `CC(=O)NCc1ccc(Nc2nccc(-c3cnc4c(c3)C(C)(C)CN4)n2)c(OC(F)F)c1` [Compound 85], for which the values for the IC50 in data set [2], in data set [1] (setting [5]) and in data set [3] (setting [6]) were 14.1 nM, 3 nM and 67.6 nM, respectively.
Taken in the same sequence, the figures for `CC(=O)NCc1ccc(Nc2nccc(-c3cnc4c(c3)C(C)(CO)CN4)n2)c(C)c1` (centres unmarked) [Compound 86] were 15.1 nM, 11.2 nM and 550 nM.
On to `Cc1cc(C(=O)NC2CCOCC2)ccc1Nc1nccc(-c2cnc3c(c2)C(C)(CO)CN3)n1` (centres unmarked) [Compound 87], for which the IC50 in data set [2] came out at 21.4 nM; in data set [1] (setting [8]) it was 17.8 nM; in data set [1] (setting [5]), 13.5 nM; in data set [3] (setting [6]), 1150 nM.
Turning to `Cc1cc(C(=O)NC2CN(C)C2)ccc1Nc1nccc(-c2cnc3c(c2)C(C)(CO)CN3)n1` (centres unmarked) [Compound 89], the figures for the IC50 in data set [2], in data set [1] (setting [5]) and in data set [3] (setting [6]) were 63.1 nM, 20.4 nM and 5010 nM, respectively.
For the compound `COc1cc(Nc2nccc(-c3cnc4c(c3)C(C)(CO)CN4)n2)c(C)c(C(=O)NC2CN(C)C2)c1` (centres unmarked) [Compound 90], the IC50 in data set [2] is 14.8 nM; in data set [1] (setting [5]) it was 5.1 nM; in data set [3] (setting [6]) it was 759 nM.
For `Cc1cc(C(=O)N2CCC(O)CC2)ccc1Nc1nccc(-c2cnc3c(c2)C(C)(CO)CN3)n1` (centres unmarked) [Compound 109], the IC50 in data set [2] turned out to be 10.2 nM; in data set [1] (setting [5]), 5.5 nM; in data set [3] (setting [6]) it was 309 nM.
The matching figures for `Cc1cc(C(=O)N2CCOCC2)ccc1Nc1nccc(-c2cnc3c(c2)C(C)(CO)CN3)n1` (centres unmarked) [Compound 120]: 9.3 nM, 7.8 nM and 427 nM.
`COC1CCN(C(=O)c2ccc(Nc3nccc(-c4cnc5c(c4)C(C)(CO)CN5)n3)c(C)c2)CC1` (centres unmarked) [Compound 121]: the results for the IC50 in data set [2], in data set [1] (setting [5]) and in data set [3] (setting [9]) were 11.2 nM, 7.2 nM and 380 nM, respectively.
For `Cc1cc(C(=O)NC2CCOCC2)ccc1Nc1nccc(-c2cnc3c(c2)C(C)(CCC#N)CN3)n1` (centres unmarked) [Compound 125], the IC50 in data set [2] came out at 12.3 nM; in data set [1] (setting [8]) it was 31.6 nM; in data set [3] (setting [6]) it was 1230 nM.
The matching figures for `Cc1cc(C(=O)NC2CCOCC2)ccc1Nc1nccc(-c2cnc3c(c2)C(C)(CC#N)CN3)n1` (centres unmarked) [Compound 126]: 8.7 nM, 14.8 nM and 537 nM.
On to `COc1cc(C(=O)NC2CCN(C)CC2)ccc1Nc1nccc(-c2cnc3c(c2)C(C)(CO)CN3)n1` (centres unmarked) [Compound 130], for which the IC50 is 10.2 nM in data set [2], 10.7 nM in data set [1] (setting [5]) and 661 nM in data set [3] (setting [6]).
The matching figures for `COc1cc(C(=O)N2CCC(OC)CC2)ccc1Nc1nccc(-c2cnc3c(c2)C(C)(CO)CN3)n1` (centres unmarked) [Compound 131]: 4.5 nM, 0.9 nM and 70.8 nM.
With `COc1cc(C(=O)N2CCS(=O)(=O)CC2)ccc1Nc1nccc(-c2cnc3c(c2)C(C)(CO)CN3)n1` (centres unmarked) [Compound 132], the IC50 in data set [2] is 3.3 nM; in data set [1] (setting [8]) it was 10 nM; in data set [1] (setting [5]) it was 3.1 nM; in data set [3] (setting [6]) it was 513 nM.
In the case of `COC1CCN(C(=O)c2ccc(Nc3nccc(-c4cnc5c(c4)C(C)(CO)CN5)n3)c(C)c2)CC1` (centres unmarked) [Compound 133], the figures for the IC50 in data set [2] and in data set [3] (setting [9]) were 5.8 nM and 129 nM, respectively.
With `Cc1cc(C(=O)N2CCS(=O)(=O)CC2)ccc1Nc1nccc(-c2cnc3c(c2)C(C)(CO)CN3)n1` (centres unmarked) [Compound 134], the IC50 in data set [2] is 3.9 nM; in data set [1] (setting [5]), 4.4 nM; in data set [3] (setting [6]), 776 nM.
As for `CC(=O)NCc1cccc(Nc2nccc(-c3cnc4c(c3)C(C)(CO)CN4)n2)c1C` (centres unmarked) [Compound 360], the IC50 in data set [2] amounted to 77.6 nM; in data set [1] (setting [5]) it was 33.9 nM; in data set [3] (setting [6]), 912 nM.
